# Measurements as given in ChEMBL document CHEMBL4808226, “Optimization of the Urea Linker of Triazolopyridazine MMV665917 Results in a New Anticryptosporidial Lead with Improved Potency and Predicted hERG Safety Margin” (J Med Chem, 2021).
# Columns and labels:
# Cryptosporidium parvum = test: Anti-cryptosporidial activity against Cryptosporidium parvum infected in HCT-8 cells pre-infected for 3 hrs followed by compound treatment and measured after 45 hrs by fluorescence microscopy analysis; assay type: functional, organism-based
# [1] = (§1) Efflux ratio of apparent permeability across basolateral to apical side over apical to basolateral side in […] cells at 10 uM after 2 hrs; assay type: ADME, cell-based; details: mdckii-mdr1, 2 h, 10 µM
# hERG (KCNH2) = hERG (KCNH2) (Homo sapiens, UniProt Q12809); test: Displacement of [3H]-dofetilide from human ERG at 10 uM relative to control; details: probe [3H]-dofetilide
# [2] = Kinetic aqueous solubility of the compound in pH 7.4; assay type: physicochemical; details: buffer, read-out: Kinetic_solubility
# [3] = Metabolic stability in mouse liver microsomes assessed as half life at 2 uM measured up to 30 mins in presence of NADPH by LC-MS/MS analysis; assay type: ADME, Microsome; details: 0.5 h
# [4] = Metabolic stability in human liver microsomes assessed as half life at 2 uM measured up to 30 mins in presence of NADPH by LC-MS/MS analysis; assay type: ADME, Microsome
# MDR1 (P-gp) = test: as §1; assay type: ADME, cell-based; details: MDCK-MDR1
# Chain of hERG (KCNH2) (Q12809 whole entry): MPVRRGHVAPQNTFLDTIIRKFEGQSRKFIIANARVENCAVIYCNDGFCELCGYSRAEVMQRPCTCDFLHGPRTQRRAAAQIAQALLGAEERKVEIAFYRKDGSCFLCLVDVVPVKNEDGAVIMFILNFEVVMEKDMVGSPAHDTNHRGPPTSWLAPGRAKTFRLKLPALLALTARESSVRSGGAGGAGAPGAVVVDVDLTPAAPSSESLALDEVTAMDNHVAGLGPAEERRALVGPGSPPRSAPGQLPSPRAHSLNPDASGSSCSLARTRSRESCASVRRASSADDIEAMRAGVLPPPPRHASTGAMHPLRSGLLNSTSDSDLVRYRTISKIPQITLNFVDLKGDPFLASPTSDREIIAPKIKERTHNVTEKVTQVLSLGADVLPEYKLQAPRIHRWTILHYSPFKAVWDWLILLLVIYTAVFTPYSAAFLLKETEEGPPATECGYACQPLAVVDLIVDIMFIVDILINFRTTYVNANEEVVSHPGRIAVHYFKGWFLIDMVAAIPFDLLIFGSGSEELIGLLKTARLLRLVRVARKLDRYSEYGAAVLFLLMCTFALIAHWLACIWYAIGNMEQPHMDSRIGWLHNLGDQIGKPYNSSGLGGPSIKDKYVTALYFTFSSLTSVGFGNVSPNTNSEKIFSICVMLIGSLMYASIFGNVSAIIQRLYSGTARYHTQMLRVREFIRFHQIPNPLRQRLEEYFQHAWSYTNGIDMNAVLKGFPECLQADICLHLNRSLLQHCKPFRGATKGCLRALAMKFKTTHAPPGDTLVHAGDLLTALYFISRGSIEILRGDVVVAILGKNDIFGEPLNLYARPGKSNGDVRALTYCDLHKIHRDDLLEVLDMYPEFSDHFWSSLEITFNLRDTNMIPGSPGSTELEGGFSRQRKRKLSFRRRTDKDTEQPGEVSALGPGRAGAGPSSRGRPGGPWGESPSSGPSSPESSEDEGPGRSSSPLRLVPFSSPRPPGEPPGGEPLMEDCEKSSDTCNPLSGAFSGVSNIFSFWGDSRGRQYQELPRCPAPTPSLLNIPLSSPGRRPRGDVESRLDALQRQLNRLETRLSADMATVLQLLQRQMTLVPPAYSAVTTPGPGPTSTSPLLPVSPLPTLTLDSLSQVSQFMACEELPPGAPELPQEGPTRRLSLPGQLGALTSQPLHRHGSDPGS
Compound,EC50 (Cryptosporidium parvum) [µM],further results
O=C(Cc1ccc(Cl)c(Cl)c1)NC1CCN(c2ccc3nncn3n2)CC1,> 25,
O=C(Cc1ccc(F)cc1)N1CCN(c2ccc3nncn3n2)CC1,0.86,
O=C(c1ccc(Cl)c(Cl)c1)N1CCN(c2ccc3nncn3n2)CC1,> 25,
CN(C(=O)N1CCN(c2ccc3nncn3n2)CC1)c1ccc(Cl)c(Cl)c1,29,
O=C(Cc1ccc(Cl)cc1)N1CCN(c2ccc3nncn3n2)CC1,0.66,"Ratio [1]: 3; inhibition at 10 µM (hERG (KCNH2)): 2%; solubility kinetic [2]: 10 µM; t1/2 [3]: > 30 min; t1/2 ([4]; microsomes, 0.5 h, 2 µM): > 30 min"
O=C(Cc1ccc([N+](=O)[O-])cc1)N1CCN(c2ccc3nncn3n2)CC1,2.5,
O=S(=O)(Cc1ccc(Cl)c(Cl)c1)N1CCN(c2ccc3nncn3n2)CC1,> 25,
CC1CN(c2ccc3nncn3n2)CCN1C(=O)Cc1ccc(Cl)c(Cl)c1 (stereo not given),7.1,
COc1ccc(CC(=O)N2CCN(c3ccc4nncn4n3)CC2)cc1,17,
O=C(NC1CCN(c2ccc3nncn3n2)CC1)c1ccc(Cl)c(Cl)c1,12,
O=C(C(=O)N1CCN(c2ccc3nncn3n2)CC1)c1ccc(Cl)c(Cl)c1,2.2,
O=C(Cc1ccc2ccccc2c1)N1CCN(c2ccc3nncn3n2)CC1,14,
O=C(Cc1ccc(Cl)c(Cl)c1)N1CCCN(c2ccc3nncn3n2)CC1,12,
O=C(Nc1ccc(Cl)c(Cl)c1)N1CC=C(c2ccc3nncn3n2)CC1,0.61,"efflux ratio at 2 h, 10 µM (MDR1 (P-gp)): 6.5; inhibition at 10 µM (hERG (KCNH2)): 56%; solubility kinetic [2]: 59 µM; half-life at 2 µM ([4]; liver microsomes): > 30 min"
COc1cccc(CC(=O)N2CCN(c3ccc4nncn4n3)CC2)c1,18,
O=C(Nc1ccc(Cl)c(Cl)c1)N1CCCN(c2ccc3nncn3n2)CC1,> 25,
